From patent publication US9763445B2, “Safened herbicidal compositions comprising a pyridine carboxylic acid herbicide” (Dow AgroSciences, LLC, priority 2014, dated 2017)

Key:
[1] = tested on: common sorghum (SORVU); assay: Postemergence greenhouse trial, % visual injury on common sorghum; type: in vivo, Sorghum vulgare; conditions: SORVU
Experimental: (§1) Seeds of the desired test plant species were planted in Sun Gro MetroMix® 306 planting mixture, which typically has a pH of 6.0 to 6.8 and an organic matter content of about 30 percent, in plastic pots with a surface area of 103.2 square centimeters (cm^2). When required to ensure good germination and healthy plants, a fungicide treatment and/or other chemical or physical treatment was applied. The plants were grown for 7-36 days (d) in a greenhouse with an approximate 14-hour (h) photoperiod which was maintained at about 23° C. during the day and 22° C. during the night. Nutrients and water were added on a regular basis and supplemental lighting was provided with overhead metal halide 1000-Watt lamps as necessary. The plants were employed for testing when they reached the second or third true leaf stage.
(§2) Weighed amounts of technical material were dissolved in a volume of 97:3 volume per volume (v/v) acetone/dimethyl sulfoxide (DMSO) to stock solutions. […] The concentrated stock solutions were diluted with an aqueous mixture of 1.5% v/v of Agri-dex crop oil concentrate to provide the appropriate application rates. Compound requirements are based upon a 12 milliliter (mL) application volume at a rate of 187 liters per hectare (L/ha). Stocks solutions of the safeners were prepared following the same procedure. Spray solutions of the safeners and experimental compound mixtures were prepared by adding the stock solutions to the appropriate amount of dilution solution to form a 12 mL spray solution in two-way combinations. Formulated compounds were applied to the plant material with an overhead Mandel track sprayer equipped with 8002E nozzles calibrated to deliver 187 L/ha over an application area of 0.503 square meters (m^2) at a spray height of 18 inches (43 centimeters (cm)) above average plant canopy. Control plants were sprayed in the same manner with the solvent blank. All herbicide application (component a) rates are in g ae/ha and all safener (component b) rates are in g ai/ha.
(§3) The treated plants and control plants were placed in a greenhouse as described above and watered by sub-irrigation to prevent wash-off of the test compounds. After 20-22 d, the condition of the test plants as compared with that of the control plants was determined visually and scored on a scale of 0 to 100 percent where 0 corresponds to no injury and 100 corresponds to complete kill. Colby's equation was used to determine the herbicidal effects expected from the mixtures. […]
(§4) The safener cloquintocet-acid and a number of agriculturally acceptable esters and salts (-mexyl, -dimethylammonium salt and -triethylammonium salt) were combined in varying ratios with compound 1 and applied to spring wheat (TRZAS), winter wheat (TRZAW), and spring barley (HORVS), and the phytotoxicity of the herbicidal compositions was measured. In addition, the efficacy of the herbicidal composition on pigweed (AMARE, Amaranthus retroflexus), nutsedge (CYPES, Cyperus esculentus), common sunflower (HELAN, Helianthus annuus), and common sorghum (SORVU, Sorghum vulgare).

[2] = tested on: corn/maize (ZEAMX); assay: Postemergence greenhouse trial, % visual injury on corn/maize; type: in vivo, Zea mays; conditions: ZEAMX
Experimental: as §1, §2
(§5) The treated plants and control plants were placed in a greenhouse as described above and watered by sub-irrigation to prevent wash-off of the test compounds. After 20-22 d, the condition of the test plants as compared with that of the control plants was determined visually and scored on a scale of 0 to 100 percent where 0 corresponds to no injury and 100 corresponds to complete kill. The condition of the test plants was compared with that of the control plants as determined visually and scored on a scale of 0 to 100 percent, where 0 corresponds to no injury and 100 corresponds to complete kill. Colby's equation was used to determine the herbicidal effects expected from the mixtures.
(§6) The safener cloquintocet-mexyl was combined with compound 1, compound 2, compound 4, compound 5, and compound 6, and applied to corn/maize (ZEAMX) and spring wheat (TRZAS) and the phytotoxicity of the herbicidal compositions was measured. In addition, the efficacy of the herbicidal composition on velvetleaf (ABUTH, Abutilon theophrasti), pigweed (AMARE, Amaranthus retroflexus), winter rape (BRSNW, Brassica napus), lambsquarters (CHEAL, Chenopodium album), thistle (CIRAR, Cirsium arvense), nutsedge (CYPES, Cyperus esculentus), poinsettia (EPHHL, Euphorbia heterophylla), wild buckwheat (POLCO, Polygonum convolvulus), giant foxtail (SETFA, Setaria faberi), and chickweed (STEME, Stellaria media) was evaluated. […]

[3] = tested on: common sunflower (HELAN); assay: Postemergence greenhouse trial, % visual injury on common sunflower; type: in vivo, Helianthus annuus
Experimental: as §1, §2, §5, §4

[4] = tested on: nutsedge (CYPES); assay: Postemergence greenhouse trial, % visual injury on nutsedge; type: in vivo, Cyperus esculentus; conditions: CYPES
Experimental: as §1, §2, §5, §6
(§7) The safener cloquintocet-acid and a number of agriculturally acceptable esters and salts (-mexyl, -dimethylammonium salt and -triethylammonium salt) were combined in varying ratios with compound 1 and applied to spring wheat (TRZAS), winter wheat (TRZAW), and spring barley (HORVS), and the phytotoxicity of the herbicidal compositions was measured. […]

[5] = tested on: winter wheat (TRZAW); assay: Postemergence greenhouse trial, % visual injury on winter wheat; type: in vivo, Triticum aestivum; conditions: TRZAW
Experimental: as §1, §2, §5
The safener cloquintocet-mexyl was combined with compound 1, compound 2, compound 3, compound 7, compound 8, compound 9, compound 10, compound 11, compound 12, compound 13, compound 14, compound 15, compound 16, compound 17, compound 18, compound 19, and compound 20, and applied to spring wheat (TRZAS), winter wheat (TRZAW), and spring barley (HORVS) and the phytotoxicity of the herbicidal compositions was measured. […]

[6] = tested on: pigweed (AMARE); assay: Postemergence greenhouse trial, % visual injury on pigweed; type: in vivo, Amaranthus retroflexus; conditions: AMARE
Experimental: as §1, §2, §5, §6, §7

[7] = tested on: kochia (KCHSC); assay: Postemergence greenhouse trial, % visual injury on kochia; type: in vivo, Kochia scoparia; conditions: Bassia scoparia, post-emergence, KCHSC, applied alone, read-out: % visual injury, Ob
Experimental: as §1, §2, §3

[8] = tested on: winter rape (BRSNW); assay: Postemergence greenhouse trial, % visual injury on winter rape; type: in vivo, Brassica napus; conditions: Brassica napus, post-emergence, BRSNW, applied alone, read-out: % visual injury, Ob
Experimental: as §1, §2, §5, §6

[9] = tested on: wild mustard (SINAR); assay: Postemergence greenhouse trial, % visual injury on wild mustard; type: in vivo, Sinapis arvensis; conditions: Brassica, post-emergence, SINAR, applied alone, read-out: % visual injury, Ob
Experimental: as §1, §2, §3

[10] = tested on: common poppy (PAPRH); assay: Postemergence greenhouse trial, % visual injury on common poppy; type: in vivo, Papaver rhoeas; conditions: Papaver rhoeas, post-emergence, PAPRH, applied alone, read-out: % visual injury, Ob
Experimental: as §1, §2, §3

[11] = tested on: wild pansy (VIOTR); assay: Postemergence greenhouse trial, % visual injury on wild pansy; type: in vivo, Viola tricolor; conditions: VIOTR, applied alone
Experimental: as §1, §2, §3

## CNC.O=C(O)COc1ccc(Cl)c2cccnc12 [CQC-DMA]
[1]; safener alone 2.5 g/ha
  % visual injury, observed (Ob): 0%
[1]; safener alone 5 g/ha
  % visual injury, observed (Ob): 0%
[1]; safener alone 10 g/ha
  % visual injury, observed (Ob): 0%
[1]; safener alone 20 g/ha
  % visual injury, observed (Ob): 0%
[2]; safener alone 2.5 g/ha
  % visual injury, observed (Ob): 0%
[2]; safener alone 5 g/ha
  % visual injury, observed (Ob): 0%
[2]; safener alone 10 g/ha
  % visual injury, observed (Ob): 0%
[2]; safener alone 20 g/ha
  % visual injury, observed (Ob): 0%
[3]; safener alone 2.5 g/ha
  % visual injury, observed (Ob): 0%
[3]; safener alone 5 g/ha
  % visual injury, observed (Ob): 0%
[3]; safener alone 10 g/ha
  % visual injury, observed (Ob): 0%
[3]; safener alone 20 g/ha
  % visual injury, observed (Ob): 0%
[4]; safener alone 2.5 g/ha
  % visual injury, observed (Ob): 0%
[4]; safener alone 5 g/ha
  % visual injury, observed (Ob): 0%
[4]; safener alone 10 g/ha
  % visual injury, observed (Ob): 0%
[4]; safener alone 20 g/ha
  % visual injury, observed (Ob): 0%
[5]; safener alone 2.5 g/ha
  % visual injury, observed (Ob): 0%
[5]; safener alone 5 g/ha
  % visual injury, observed (Ob): 0%
[5]; safener alone 10 g/ha
  % visual injury, observed (Ob): 0%
[5]; safener alone 20 g/ha
  % visual injury, observed (Ob): 0%
[6]; safener alone 2.5 g/ha
  % visual injury, observed (Ob): 0%
[6]; safener alone 5 g/ha
  % visual injury, observed (Ob): 0%
[6]; safener alone 10 g/ha
  % visual injury, observed (Ob): 0%
[6]; safener alone 20 g/ha
  % visual injury, observed (Ob): 0%

## Nc1c(F)c(-c2ccc3cc[nH]c3c2)nc(C(=O)O)c1Cl [compound 16]
[7]; 4.375 g/ha
  pest or weed control at 4.375 g/ha: 60%
[7]; 8.75 g/ha
  pest or weed control at 8.75 g/ha: 70%
[7]; 17.5 g/ha
  pest or weed control at 17.5 g/ha: 85%
[7]; 35 g/ha
  pest or weed control at 35 g/ha: 90%
[7]; 70 g/ha
  pest or weed control at 70 g/ha: 90%
[8]; 4.375 g/ha
  plant injury at 4.375 g/ha: 30%
[8]; 8.75 g/ha
  plant injury at 8.75 g/ha: 40%
[8]; 17.5 g/ha
  plant injury at 17.5 g/ha: 65%
[8]; 35 g/ha
  plant injury at 35 g/ha: 70%
[8]; 70 g/ha
  plant injury at 70 g/ha: 90%
[9]; 4.375 g/ha
  pest or weed control at 4.375 g/ha: 90%
[9]; 8.75 g/ha
  pest or weed control at 8.75 g/ha: 93%
[9]; 17.5 g/ha
  pest or weed control at 17.5 g/ha: 95%
[9]; 35 g/ha
  pest or weed control at 35 g/ha: 100%
[9]; 70 g/ha
  pest or weed control at 70 g/ha: 100%
[10]; 4.375 g/ha
  pest or weed control at 4.375 g/ha: 70%
[10]; 8.75 g/ha
  pest or weed control at 8.75 g/ha: 70%
[10]; 17.5 g/ha
  pest or weed control at 17.5 g/ha: 100%
[10]; 35 g/ha
  pest or weed control at 35 g/ha: 100%
[10]; 70 g/ha
  pest or weed control at 70 g/ha: 100%
[6]; Amaranthus retroflexus, post-emergence, 4.375 g/ha, applied alone, read-out: % visual injury, Ob
  pest or weed control at 4.375 g/ha: 70%
[6]; Amaranthus retroflexus, post-emergence, 8.75 g/ha, applied alone, read-out: % visual injury, Ob
  pest or weed control at 8.75 g/ha: 80%
[6]; Amaranthus retroflexus, post-emergence, 17.5 g/ha, applied alone, read-out: % visual injury, Ob
  pest or weed control at 17.5 g/ha: 85%
[6]; Amaranthus retroflexus, post-emergence, 35 g/ha, applied alone, read-out: % visual injury, Ob
  pest or weed control at 35 g/ha: 100%
[6]; Amaranthus retroflexus, post-emergence, 70 g/ha, applied alone, read-out: % visual injury, Ob
  pest or weed control at 70 g/ha: 100%
[11]; 4.375 g/ha
  % visual injury, Ob: 10%
[11]; 8.75 g/ha
  % visual injury, Ob: 10%
[11]; 17.5 g/ha
  % visual injury, Ob: 20%
[11]; 35 g/ha
  % visual injury, Ob: 30%
[11]; 70 g/ha
  % visual injury, Ob: 40%
